Measurements: PubChem BioAssay AID1963428 (Molecular Pharmacology Branch, DTP, NCI, 2024)
Values joined by “and” are separate entries in the source; they are usually repeats but may differ in a detail not shown here. Equal entries are not always repeated.

Test system: 171881-019-R-J1-PDC complex spheroid growth, % test/control
Assay: Anticancer human tumor 171881-019-R-J1-PDC patient-derived invasive breast carcinoma cell line growth inhibition [Asc]
Conditions: for viability, T/C: stronger effect = lower value
Summary of the method: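 Tumor cells were grown as multicellular spheroids with stromal HUVEC and mesenchymal stem cells and treated singly or in combination. Concentrations fell in half-log steps from the clinical Cmax, or from 10 microM where none was known.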

[1] = curve of first compound, second compound 0.1 µM
[2] = curve of first compound, second compound 0.316 µM
[3] = curve of first compound, second compound 1 µM
[4] = curve of first compound, second compound 3.16 µM
[5] = curve of first compound, second compound 10 µM
[6] = second compound 0.1 µM, first compound 0.0316 µM
[7] = second compound 0.1 µM, first compound 0.1 µM
[8] = second compound 0.1 µM, first compound 0.316 µM
[9] = second compound 0.1 µM, first compound 1 µM
[10] = second compound 0.1 µM, first compound 3.16 µM
[11] = second compound 0.1 µM, first compound 10 µM
[12] = second compound 0.316 µM, first compound 0.0316 µM
[13] = second compound 0.316 µM, first compound 0.1 µM
[14] = second compound 0.316 µM, first compound 0.316 µM
[15] = second compound 0.316 µM, first compound 1 µM
[16] = second compound 0.316 µM, first compound 3.16 µM
[17] = second compound 0.316 µM, first compound 10 µM
[18] = second compound 1 µM, first compound 0.0316 µM
[19] = second compound 1 µM, first compound 0.1 µM
[20] = second compound 1 µM, first compound 0.316 µM
[21] = second compound 1 µM, first compound 1 µM
[22] = second compound 1 µM, first compound 3.16 µM
[23] = second compound 1 µM, first compound 10 µM
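For viability, T/C in this document: spheroids exposed to compounds for 7 days.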

With Cc1nc(N2CCC3(CC2)COC(C)C3N)c(CO)nc1Sc1ccnc(N)c1Cl (configuration not stated) + Cc1c(S(C)(=O)=O)c(-c2cc(F)cc(N3CCN(c4ccc(NS(=O)(=O)c5ccc(NC(CCN6CCC(C(=O)OCCCP(=O)(O)O)CC6)CSc6ccccc6)c(S(=O)(=O)C(F)(F)F)c5)cc4)CC3)c2)c(-c2ccc(Cl)cc2)n1C(C)C the IC50 [1] was > 3000 nM, the IC50 [2] was > 3000 nM and the IC50 [3] was > 3000 nM. The IC50 [4] was 2200 nM, the IC50 [5] was 884 nM and the viability, T/C (second compound 0.1 µM, first compound 0.00949 µM) was 127%. The viability, T/C (second compound 0.1 µM, first compound 0.03 µM) was 182%, the viability, T/C (second compound 0.1 µM, first compound 0.0949 µM) was 201% and the viability, T/C (second compound 0.1 µM, first compound 0.3 µM) was 141%. The viability, T/C (second compound 0.1 µM, first compound 0.949 µM) was 118%, the viability, T/C (second compound 0.1 µM, first compound 3 µM) was 102% and the viability, T/C (second compound 0.316 µM, first compound 0.00949 µM) was 161%. The viability, T/C (second compound 0.316 µM, first compound 0.03 µM) was 223%, the viability, T/C (second compound 0.316 µM, first compound 0.0949 µM) was 187% and the viability, T/C (second compound 0.316 µM, first compound 0.3 µM) was 137%. The viability, T/C (second compound 0.316 µM, first compound 0.949 µM) was 97.3%, the viability, T/C (second compound 0.316 µM, first compound 3 µM) was 75.4% and the viability, T/C (second compound 1 µM, first compound 0.00949 µM) was 181%. The viability, T/C (second compound 1 µM, first compound 0.03 µM) was 201%, the viability, T/C (second compound 1 µM, first compound 0.0949 µM) was 144% and the viability, T/C (second compound 1 µM, first compound 0.3 µM) was 104%. The viability, T/C (second compound 1 µM, first compound 0.949 µM) was 80.4%, the viability, T/C (second compound 1 µM, first compound 3 µM) was 66.6% and the viability, T/C (second compound 3.16 µM, first compound 0.00949 µM) was 180%. The viability, T/C (second compound 3.16 µM, first compound 0.03 µM) was 174%, the viability, T/C (second compound 3.16 µM, first compound 0.0949 µM) was 113% and the viability, T/C (second compound 3.16 µM, first compound 0.3 µM) was 80.5%. For the same compound, the viability, T/C (second compound 3.16 µM, first compound 0.949 µM) was 59%, the viability, T/C (second compound 3.16 µM, first compound 3 µM) was 51.7% and the viability, T/C (second compound 10 µM, first compound 0.00949 µM) was 177%. It also gave a viability, T/C (second compound 10 µM, first compound 0.03 µM) of 148%, a viability, T/C (second compound 10 µM, first compound 0.0949 µM) of 112% and a viability, T/C (second compound 10 µM, first compound 0.3 µM) of 76.7%. The viability, T/C (second compound 10 µM, first compound 0.949 µM) was 41.8% and the viability, T/C (second compound 10 µM, first compound 3 µM) was 40.5%.

With COc1c(OCCCN2CCOCC2)ccc2c3n(c(=NC(=O)c4cnc(N)nc4)nc12)CCN3 the viability, T/C (compound 0.00316 µM) was 148% and 152% and 226%, the viability, T/C (compound 0.01 µM) was 115% and 134% and 153% and the viability, T/C (compound 0.0316 µM) was 50.5% and 46.9% and 61.2%. For the same compound, the viability, T/C (compound 0.1 µM) was 17.4% and 14.1% and 19.9%, the viability, T/C (compound 0.316 µM) was 3.09% and 3.26% and 4.21% and the viability, T/C (compound 1 µM) was 1.31% and 1.02% and 4.37%. For the same compound, the IC50 (curve of compound) was 33.9 nM and 30.9 nM and 24.8 nM.

For C=CC(=O)N1CCN(c2nc(=O)n(-c3c(C)ccnc3C(C)C)c3nc(-c4c(O)cccc4F)c(F)cc23)C(C)C1 (configuration not stated) + CNC(C)C(=O)NC1CN(S(=O)(=O)c2cccc(S(=O)(=O)N3CCC4CCC(C(=O)NC(c5ccccc5)c5ccccc5)N4C(=O)C(NC(=O)C(C)NC)C3)c2)CCC2CCC(C(=O)NC(c3ccccc3)c3ccccc3)N2C1=O, the IC50 (curve of first compound, second compound 0.01 µM) was > 10000 nM, the IC50 (curve of first compound, second compound 0.0316 µM) was > 10000 nM and the IC50 [1] was > 10000 nM. The IC50 [2] was > 10000 nM, the IC50 [3] was > 10000 nM and the viability, T/C (second compound 0.01 µM, first compound 0.0316 µM) was 105%. For the same compound, the viability, T/C (second compound 0.01 µM, first compound 0.1 µM) was 94.4%, the viability, T/C (second compound 0.01 µM, first compound 0.316 µM) was 84.8% and the viability, T/C (second compound 0.01 µM, first compound 1 µM) was 96%. It also gave a viability, T/C (second compound 0.01 µM, first compound 3.16 µM) of 95.7%, a viability, T/C (second compound 0.01 µM, first compound 10 µM) of 85.8% and a viability, T/C (second compound 0.0316 µM, first compound 0.0316 µM) of 110%. For the same compound, the viability, T/C (second compound 0.0316 µM, first compound 0.1 µM) was 97.7%, the viability, T/C (second compound 0.0316 µM, first compound 0.316 µM) was 97.8% and the viability, T/C (second compound 0.0316 µM, first compound 1 µM) was 85.7%. For the same compound, the viability, T/C (second compound 0.0316 µM, first compound 3.16 µM) was 85.2%, the viability, T/C (second compound 0.0316 µM, first compound 10 µM) was 80.3% and the viability, T/C [6] was 99.2%. It also gave a viability, T/C [7] of 92.4%, a viability, T/C [8] of 95.9% and a viability, T/C [9] of 98.6%. It also gave a viability, T/C [10] of 96%, a viability, T/C [11] of 96.2% and a viability, T/C [12] of 95.1%. It also gave a viability, T/C [13] of 95.3%, a viability, T/C [14] of 103% and a viability, T/C [15] of 107%. It also gave a viability, T/C [16] of 94%, a viability, T/C [17] of 86.8% and a viability, T/C [18] of 110%. It also gave a viability, T/C [19] of 110%, a viability, T/C [20] of 86% and a viability, T/C [21] of 96.6%. It also gave a viability, T/C [22] of 96.2% and a viability, T/C [23] of 96.8%.

C=C(F)C(=O)N1CCN(c2nc(OCC3CCCN3C)nc3c2CCN(c2cccc4cccc(Cl)c24)C3)CC1CC#N (configuration not stated) + Cc1c(S(C)(=O)=O)c(-c2cc(F)cc(N3CCN(c4ccc(NS(=O)(=O)c5ccc(NC(CCN6CCC(C(=O)OCCCP(=O)(O)O)CC6)CSc6ccccc6)c(S(=O)(=O)C(F)(F)F)c5)cc4)CC3)c2)c(-c2ccc(Cl)cc2)n1C(C)C gave an IC50 [1] of 5610 nM, an IC50 [2] of 5890 nM and an IC50 [3] of 4120 nM. The IC50 [4] was 2530 nM, the IC50 [5] was 2430 nM and the viability, T/C [6] was 93.8%. For the same compound, the viability, T/C [7] was 86.7%, the viability, T/C [8] was 106% and the viability, T/C [9] was 90.9%. It also gave a viability, T/C [10] of 118%, a viability, T/C [11] of 0.36% and a viability, T/C [12] of 130%. It also gave a viability, T/C [13] of 129%, a viability, T/C [14] of 113% and a viability, T/C [15] of 125%. The viability, T/C [16] was 108%, the viability, T/C [17] was 0.3% and the viability, T/C [18] was 124%. For the same compound, the viability, T/C [19] was 136%, the viability, T/C [20] was 133% and the viability, T/C [21] was 131%. For the same compound, the viability, T/C [22] was 64.8%, the viability, T/C [23] was 0.25% and the viability, T/C (second compound 3.16 µM, first compound 0.0316 µM) was 161%. It also gave a viability, T/C (second compound 3.16 µM, first compound 0.1 µM) of 149%, a viability, T/C (second compound 3.16 µM, first compound 0.316 µM) of 144% and a viability, T/C (second compound 3.16 µM, first compound 1 µM) of 185%. The viability, T/C (second compound 3.16 µM, first compound 3.16 µM) was 23.6%, the viability, T/C (second compound 3.16 µM, first compound 10 µM) was 0.3% and the viability, T/C (second compound 10 µM, first compound 0.0316 µM) was 179%. For the same compound, the viability, T/C (second compound 10 µM, first compound 0.1 µM) was 191%, the viability, T/C (second compound 10 µM, first compound 0.316 µM) was 196% and the viability, T/C (second compound 10 µM, first compound 1 µM) was 202%. The viability, T/C (second compound 10 µM, first compound 3.16 µM) was 15.2% and the viability, T/C (second compound 10 µM, first compound 10 µM) was 0.27%.
